Earlier results as cited in US20070298098A1, “Controlled Release Compositions Comprising Levetiracetam” (ELAN PHARMA INTERNATIONAL LIMITED, priority 2005, published 2007).
“Also recorded” adds a separate entry of the source.

plasma half-life (across studies): 6 to 8 h
linearity of pharmacokinetics (dose range of 500-5000 mg): linear
dependence of metabolism on liver cytochrome P450 (in vivo): not liver cytochrome P450 dependent
dose renally excreted unchanged (in vivo): 66%
major metabolic pathway (enzymatic hydrolysis of the acetamide group), share of dose (in vivo): 24 % of dose
time to steady state (multiple twice-daily dosing): 2 days
time of peak plasma concentrations (oral administration, fasted subjects): about an hour
decrease of Cmax by food (with food): 20%
delay of Tmax by food (with food): 1.5 h
SMILES: CC[C@@H](C(N)=O)N1CCCC1=O (single isomer, unassigned) [Levetiracetam]
effect of food on extent of bioavailability / absorption (with food): not affected by food; also recorded: Food does not affect the extent of absorption
